Data: patent US20240158370A1, “CK1 alpha AND DUAL CK1 alpha / GSPT1 DEGRADING COMPOUNDS” (Innovo Therapeutics, Inc., priority 2022, published 2024)

What was measured:
Format in all cases: cell-based
Settings in all cases: six hours
GSPT1 [1] = biological target: T1, GSPT1 (Homo sapiens, UniProt P15170+Q96SW2); assay: HiBiT degradation assay, GSPT1, Procedure B (Molt 4_hGSPT1_HiBIT cells); set-up: Molt 4_hGSPT1_HiBIT N-terminus tagged cells were generated using CRISPR technology; endogenous in cells; host or cells: Molt 4 cells, CRISPR-edited
T1 sequence (P15170 whole entry): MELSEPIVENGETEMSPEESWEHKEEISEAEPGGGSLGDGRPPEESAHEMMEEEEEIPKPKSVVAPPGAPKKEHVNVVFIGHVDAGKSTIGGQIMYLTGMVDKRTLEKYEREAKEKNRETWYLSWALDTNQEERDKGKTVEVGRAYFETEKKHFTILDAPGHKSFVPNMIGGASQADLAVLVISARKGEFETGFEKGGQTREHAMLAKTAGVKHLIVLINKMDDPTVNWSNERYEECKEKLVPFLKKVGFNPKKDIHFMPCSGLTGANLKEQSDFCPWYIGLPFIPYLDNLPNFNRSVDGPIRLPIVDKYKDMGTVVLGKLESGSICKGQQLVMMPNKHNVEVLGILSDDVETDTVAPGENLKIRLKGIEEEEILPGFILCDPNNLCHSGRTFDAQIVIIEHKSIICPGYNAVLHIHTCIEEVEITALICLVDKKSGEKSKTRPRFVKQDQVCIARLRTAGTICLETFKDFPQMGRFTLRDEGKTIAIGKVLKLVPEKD
T1 sequence (Q96SW2 whole entry): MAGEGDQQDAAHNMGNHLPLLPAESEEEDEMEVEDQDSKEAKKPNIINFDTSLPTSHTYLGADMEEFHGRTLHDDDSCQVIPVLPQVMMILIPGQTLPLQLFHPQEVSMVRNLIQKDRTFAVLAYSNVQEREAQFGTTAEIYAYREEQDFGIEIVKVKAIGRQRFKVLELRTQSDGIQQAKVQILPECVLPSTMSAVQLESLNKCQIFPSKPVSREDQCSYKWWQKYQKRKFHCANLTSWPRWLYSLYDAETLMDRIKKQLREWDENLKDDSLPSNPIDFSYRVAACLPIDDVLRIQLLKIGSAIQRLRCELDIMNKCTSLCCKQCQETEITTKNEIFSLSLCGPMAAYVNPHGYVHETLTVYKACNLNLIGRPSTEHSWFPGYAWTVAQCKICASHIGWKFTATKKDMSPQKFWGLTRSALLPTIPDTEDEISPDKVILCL
T1 sequence (Q16531 whole entry partner): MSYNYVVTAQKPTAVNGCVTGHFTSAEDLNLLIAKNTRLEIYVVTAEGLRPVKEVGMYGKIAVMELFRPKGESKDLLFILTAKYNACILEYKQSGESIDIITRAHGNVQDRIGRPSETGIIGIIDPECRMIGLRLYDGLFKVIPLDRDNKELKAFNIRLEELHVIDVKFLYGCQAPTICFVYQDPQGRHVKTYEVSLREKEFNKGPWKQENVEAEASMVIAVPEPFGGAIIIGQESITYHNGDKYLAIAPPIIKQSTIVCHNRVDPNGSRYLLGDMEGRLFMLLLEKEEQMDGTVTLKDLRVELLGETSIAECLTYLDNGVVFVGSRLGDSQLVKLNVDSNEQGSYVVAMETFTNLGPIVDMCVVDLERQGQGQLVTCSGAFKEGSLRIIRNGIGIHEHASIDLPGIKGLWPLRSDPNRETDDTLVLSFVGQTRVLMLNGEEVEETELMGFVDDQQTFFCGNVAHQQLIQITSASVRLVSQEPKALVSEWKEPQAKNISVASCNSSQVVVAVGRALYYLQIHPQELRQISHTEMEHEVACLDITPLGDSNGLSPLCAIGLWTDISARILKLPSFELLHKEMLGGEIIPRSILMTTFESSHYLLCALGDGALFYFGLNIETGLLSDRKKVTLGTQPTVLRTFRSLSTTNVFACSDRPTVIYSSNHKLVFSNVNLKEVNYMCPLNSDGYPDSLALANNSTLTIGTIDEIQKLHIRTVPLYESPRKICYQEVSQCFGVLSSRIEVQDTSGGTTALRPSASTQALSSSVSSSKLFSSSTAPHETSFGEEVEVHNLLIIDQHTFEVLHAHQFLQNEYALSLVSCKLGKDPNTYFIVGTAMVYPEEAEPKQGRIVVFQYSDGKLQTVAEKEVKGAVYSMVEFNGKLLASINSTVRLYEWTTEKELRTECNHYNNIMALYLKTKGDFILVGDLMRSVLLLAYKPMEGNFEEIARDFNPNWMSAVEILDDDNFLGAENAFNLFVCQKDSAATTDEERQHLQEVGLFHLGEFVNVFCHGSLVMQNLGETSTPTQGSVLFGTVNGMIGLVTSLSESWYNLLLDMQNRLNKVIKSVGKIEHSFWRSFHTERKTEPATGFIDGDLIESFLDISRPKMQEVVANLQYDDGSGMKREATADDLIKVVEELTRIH
Experimental: Molt 4_hGSPT1_HiBIT N-terminus tagged cells were generated using CRISPR technology. Cells were maintained in RPMI media (Thermo Fisher Scientific, Catalog #11875-093) containing 10% Fetal Bovine Serum (Thermo Fisher Scientific, Catalog #16140071) 1% Penicillin-Streptomycin (Thermo Fisher Scientific, Catalog #25200056). Cells were maintained at 37° C. in a 5% CO2 environment.
Compounds were spotted onto Cornin 384-Well, Cell Culture-Treated, Flat-Bottom, Low Flange Microplate (Fisher Scientific, Catalog #07-201-013) using a Tecan D300e digital dispenser. Ten-point dose response curves spanning from 10 μM to 0.005 μM with a 0.1% DMSO tolerance were used.
Cells were centrifuged for 5 minutes at 1200 RPMs. Cell culture media was aspirated off and cells were resuspended with RPMI+10% FBS. Cell density was determined using a Denovix CellDrop BF cell counter. Cell density was adjusted to 1×10^6 cells/ml. 40 μl of cells was added to compound treated tissue culture plates and incubated for six hours at 37° C. After six hours, cell culture plates were removed from tissue culture incubator and cooled to room temperature. 40 μl of Nano-GloHiBiT Lytic Detection Reagent (Promega, Catalog #N3040) was added to each well. Plates were placed on an orbital shaker (600 rpm) for 20 minutes. Luminescence was measured using an Envsion plate reader (Perkin Elmer). IC50 curves and Ymin were generated using a 4-parameter curve fit with GraphPad Prism software (Prism Corporation).
Results from the HiBiT assay (DC50 (nM) and Ymin (% remaining)) are shown below. All CK1α data was generated according to Procedure A. GSPT1 data for Examples 1-600, 603-620 and 703-705 was generated according to Procedure A. GSPT1 data for Examples 601, 621-702 and 706-735 was generated according to Procedure B.

CK1α = biological target: T2, CK1α (Homo sapiens, UniProt P48729+Q96SW2); assay: HiBiT degradation assay, CK1α, Procedure A
T2 construct: CSNK1A1-HiBit KI HEK293(LgBit) Cells; host or cells: HEK293(LgBit) knock-in cells
T2 sequence (P48729 whole entry): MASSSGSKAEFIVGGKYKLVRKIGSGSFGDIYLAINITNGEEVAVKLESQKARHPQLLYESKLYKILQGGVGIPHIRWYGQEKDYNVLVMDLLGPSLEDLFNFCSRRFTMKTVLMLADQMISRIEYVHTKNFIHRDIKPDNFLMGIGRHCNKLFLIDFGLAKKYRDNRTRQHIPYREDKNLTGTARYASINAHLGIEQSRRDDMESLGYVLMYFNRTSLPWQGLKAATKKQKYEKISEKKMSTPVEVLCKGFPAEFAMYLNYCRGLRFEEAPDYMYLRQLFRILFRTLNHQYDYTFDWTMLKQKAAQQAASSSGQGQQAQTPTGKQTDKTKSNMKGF
T2 sequence (Q96SW2 whole entry): as the sequence (Q96SW2 whole entry) above
T2 sequence (Q16531 whole entry partner): as the sequence (Q16531 whole entry partner) above
Method in brief: (§1)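 10-pt dose response, 10–0.005 μM, 0.1% DMSO; cells 1×10^6/ml in DMEM/10% FBS, 6 h, 37° C; HiBiT lytic detection, luminescence; DC50 + Ymin by 4-parameter fit.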

GSPT1 [2] = biological target: T1, GSPT1; assay: HiBiT degradation assay, GSPT1, Procedure A; set-up: HiBit-GSPT1 KI HEK293(LgBit) Cells; host or cells: HEK293(LgBit) knock-in cells
Method in brief: as §1

Row | Compound | DC50 (GSPT1 [1]) [nM] | GSPT1 Ymin (GSPT1 [1]) | CK1α Ymin (CK1α) | DC50 (CK1α) [nM] | DC50 (GSPT1 [2]) [nM] | GSPT1 Ymin (GSPT1 [2])
1 | Cn1cc(-c2ccc3c(c2)CN(C2CCC(=O)NC2=O)C3=O)nc1[C@H]1CC[C@H](C(F)(F)F)CC1 (some centres unmarked) [Example 601, 3-(5-(1-methyl-2-((1r,4r)-4-(trifluoromethyl)cyclohexyl)-1H-imidazol-4-yl)-1-oxoisoindolin-2-yl)piperidine-2,6-dione] | ≥ 25 | E (E = >25-75% remaining) | E (E = >25-75% remaining) | ≥ 25 |  | 
2 | Cn1cc(-c2ccc3c(c2)CN(C2CCC(=O)NC2=O)C3=O)nc1-c1ccncc1 (centres unmarked) [Example 630] | ≥ 25 | F (F = >75-100% remaining) | C (C = 0-10% remaining) | ≥ 25 |  | 
3 | Cn1cc(-c2ccc3c(c2)CN(C2CCC(=O)NC2=O)C3=O)nc1-c1ccccc1N (centres unmarked) [Example 634] | ≥ 25 | E (E = >25-75% remaining) | C (C = 0-10% remaining) | < 25 |  | 
4 | Cn1cc(-c2ccc3c(c2)CN(C2CCC(=O)NC2=O)C3=O)nc1-c1cccc(Cl)c1 (centres unmarked) [Example 635] | ≥ 25 | F (F = >75-100% remaining) | C (C = 0-10% remaining) | < 25 |  | 
5 | Cn1cc(-c2ccc3c(c2)CN(C2CCC(=O)NC2=O)C3=O)nc1-c1cccc(CO)c1 (centres unmarked) [Example 636] | ≥ 25 | F (F = >75-100% remaining) | C (C = 0-10% remaining) | ≥ 25 |  | 
6 | Cn1cc(-c2ccc3c(c2)CN(C2CCC(=O)NC2=O)C3=O)nc1-c1cccc(OC(F)(F)F)c1 (centres unmarked) [Example 637] | < 25 | F (F = >75-100% remaining) | D (D = >10- 25% remaining) | < 25 |  | 
7 | COc1cc(Cl)ccc1-c1nc(-c2ccc3c(c2)CN(C2CCC(=O)NC2=O)C3=O)cn1C (centres unmarked) [Example 638] | < 25 | F (F = >75-100% remaining) | C (C = 0-10% remaining) | < 25 |  | 
8 | Cn1cc(-c2ccc3c(c2)CN(C2CCC(=O)NC2=O)C3=O)nc1-c1ccccc1Cl (centres unmarked) [Example 639] | ≥ 25 | E (E = >25-75% remaining) | C (C = 0-10% remaining) | < 25 |  | 
9 | Cc1ccc(Cl)cc1-c1nc(-c2ccc3c(c2)CN(C2CCC(=O)NC2=O)C3=O)cn1C (centres unmarked) [Example 640] | ≥ 25 | F (F = >75-100% remaining) | C (C = 0-10% remaining) | < 25 |  | 
10 | Cn1cc(-c2ccc3c(c2)CN(C2CCC(=O)NC2=O)C3=O)nc1-c1cccc(F)c1C#N (centres unmarked) [Example 641] | ≥ 25 | F (F = >75-100% remaining) | C (C = 0-10% remaining) | < 25 |  | 
11 | Cn1cc(-c2ccc3c(c2)CN(C2CCC(=O)NC2=O)C3=O)nc1-c1cccc(O)c1 (centres unmarked) [Example 642] | < 25 | E (E = >25-75% remaining) | C (C = 0-10% remaining) | ≥ 25 |  | 
12 | COc1ccc(Cl)cc1-c1nc(-c2ccc3c(c2)CN(C2CCC(=O)NC2=O)C3=O)cn1C (centres unmarked) [Example 643] | ≥ 25 | F (F = >75-100% remaining) | D (D = >10- 25% remaining) | < 25 |  | 
13 | Cn1cc(-c2ccc3c(c2)CN(C2CCC(=O)NC2=O)C3=O)nc1-c1ccc(Cl)cc1F (centres unmarked) [Example 644] | ≥ 25 | F (F = >75-100% remaining) | D (D = >10- 25% remaining) | < 25 |  | 
14 | Cn1cc(-c2ccc3c(c2)CN(C2CCC(=O)NC2=O)C3=O)nc1-c1ccc(F)c(Cl)c1 (centres unmarked) [Example 645] | ≥ 25 | F (F = >75-100% remaining) | D (D = >10- 25% remaining) | < 25 |  | 
15 | Cn1cc(-c2ccc3c(c2)CN(C2CCC(=O)NC2=O)C3=O)nc1-c1cccs1 (centres unmarked) [Example 646] | ≥ 25 | F (F = >75-100% remaining) | C (C = 0-10% remaining) | < 25 |  | 
16 | Cn1cc(-c2ccc3c(c2)CN(C2CCC(=O)NC2=O)C3=O)nc1-c1ccc(F)cc1Cl (centres unmarked) [Example 647] | ≥ 25 | F (F = >75-100% remaining) | D (D = >10- 25% remaining) | < 25 |  | 
17 | Cc1ccc(-c2nc(-c3ccc4c(c3)CN(C3CCC(=O)NC3=O)C4=O)cn2C)c(Cl)c1 (centres unmarked) [Example 648] | < 25 | F (F = >75-100% remaining) | D (D = >10- 25% remaining) | < 25 |  | 
18 | O=C1CCC(N2Cc3cc(-c4cn(C5CC5)c(-c5ccccc5)n4)ccc3C2=O)C(=O)N1 (centres unmarked) [Example 704, 3-(5-(1-cyclopropyl-2-phenyl-1H-imidazol-4-yl)-1-oxoisoindolin-2-yl)piperidine-2,6-dione] |  |  | C (C = 0-10% remaining) | < 25 | ≥ 25 | F (F = >75-100% remaining)

Next, values leading:

Row | DC50 (GSPT1 [1]) [nM] | GSPT1 Ymin (GSPT1 [1]) | CK1α Ymin (CK1α) | DC50 (CK1α) [nM] | DC50 (GSPT1 [2]) [nM] | GSPT1 Ymin (GSPT1 [2]) | Compound
19 | ≥ 25 | F (F = >75-100% remaining) | E (E = >25-75% remaining) | < 25 |  |  | Cn1nc(-c2ccc3c(c2)CN(C2CCC(=O)NC2=O)C3=O)nc1N1CCOCC1 (centres unmarked) [Example 602, 3-(5-(1-methyl-5-morpholino-1H-1,2,4-triazol-3-yl)-1-oxoisoindolin-2-yl)piperidine-2,6-dione]
20 | < 25 | F (F = >75-100% remaining) | D (D = >10- 25% remaining) | < 25 |  |  | Cn1nc(-c2ccc3c(c2)CN(C2CCC(=O)NC2=O)C3=O)nc1-c1ccc(F)cc1 (centres unmarked) [Example 623, 3-(5-(5-(4-fluorophenyl)-1-methyl-1H-1,2,4-triazol-3-yl)-1-oxoisoindolin-2-yl)piperidine-2,6-dione]
21 | < 25 | F (F = >75-100% remaining) | C (C = 0-10% remaining) | < 25 |  |  | Cn1cc(-c2ccc3c(c2)CN(C2CCC(=O)NC2=O)C3=O)nc1-c1ccccc1O (centres unmarked) [Example 624]
22 | ≥ 25 | F (F = >75-100% remaining) | C (C = 0-10% remaining) | < 25 |  |  | COc1ccc(Cn2cc(-c3nc(-c4ccc5c(c4)CN(C4CCC(=O)NC4=O)C5=O)cn3C)cn2)cc1 (centres unmarked) [Example 625]
23 | ≥ 25 | F (F = >75-100% remaining) | C (C = 0-10% remaining) | < 25 |  |  | Cn1cc(-c2ccc3c(c2)CN(C2CCC(=O)NC2=O)C3=O)nc1-c1cccc(C(F)F)c1 (centres unmarked) [Example 626]
24 | ≥ 25 | E (E = >25-75% remaining) | C (C = 0-10% remaining) | < 25 |  |  | Cn1cc(-c2ccc3c(c2)CN(C2CCC(=O)NC2=O)C3=O)nc1-c1ccc(O)cc1 (centres unmarked) [Example 627]
25 | ≥ 25 | F (F = >75-100% remaining) | D (D = >10- 25% remaining) | < 25 |  |  | Cn1cc(-c2ccc3c(c2)CN(C2CCC(=O)NC2=O)C3=O)nc1-c1ccc(F)c(F)c1 (centres unmarked) [Example 628]
26 | ≥ 25 | F (F = >75-100% remaining) | C (C = 0-10% remaining) | < 25 |  |  | Cn1cc(-c2ccc3c(c2)CN(C2CCC(=O)NC2=O)C3=O)nc1-c1ccc(Cl)cc1 (centres unmarked) [Example 629]
27 | ≥ 25 | F (F = >75-100% remaining) | C (C = 0-10% remaining) | < 25 |  |  | Cn1cc(-c2ccc3c(c2)CN(C2CCC(=O)NC2=O)C3=O)nc1-c1cccc(F)c1 (centres unmarked) [Example 631]
28 | ≥ 25 | F (F = >75-100% remaining) | D (D = >10- 25% remaining) | < 25 |  |  | Cn1cc(-c2ccc3c(c2)CN(C2CCC(=O)NC2=O)C3=O)nc1-c1cccc(C#N)c1 (centres unmarked) [Example 632]
29 | < 25 | F (F = >75-100% remaining) | D (D = >10- 25% remaining) | < 25 |  |  | Cn1cc(-c2ccc3c(c2)CN(C2CCC(=O)NC2=O)C3=O)nc1-c1ccc(C#N)cc1 (centres unmarked) [Example 633]
